Test results published in paper PMC8645223, “Development of a simple and miniaturized sandwich-like fluorescence polarization assay for rapid screening of SARS-CoV-2 main protease inhibitors” (Cell & Bioscience, 2021).

Tests used:
SARS-CoV-2 Mpro [1] = target: T1, SARS-CoV-2 Mpro (Severe acute respiratory syndrome coronavirus 2, UniProt P0DTD1); experiment: SPR binding assay
Description: The binding affinity between dieckol and Mpro was measured using a real-time SPR spectroscopy instrument (Reichert 2SPR, Buffalo, USA). In all, 20 µL Mpro (1.6 mg/mL) in 10 mM NaAc buffer (pH5.5) was immobilized to a surface activated CM5 gold biosensor (Reichert Inc., New York, USA), and the active sites were quenched with 1 M ethanolamine buffer (pH8.0). After washing the sample loop, an indicated concentration of dieckol (0, 6.25, 12.5, 25 µM) was separately injected on the surface of the Mpro-captured biosensor at RT. The binding time of the analyte to the ligand was 90 s, and the dissociation kinetic was recorded during 330 s. Finally, the real RIU was continuously monitored, and the RIU can be related to arbitrary resonance unit (RU) as 1 µRIU = 0.733 RU. The KD value was calculated using the analyte binding kinetic curve plotted by Trace Drawer software (Ridgeview Instruments, Sweden).

SARS-CoV-2 Mpro [2] = target: T1, SARS-CoV-2 Mpro; experiment: sandwich-like FP screening assay; type: biochemical
SARS-CoV-2 Mpro [3] = target: T1, SARS-CoV-2 Mpro; experiment: FRET assay, inhibition of Mpro proteolytic activity; type: biochemical; conditions: for IC50: IC50, FRET assay
Description: As described previously, the inhibitory activity of dieckol against Mpro was preformed using a FRET assay. In brief, 50 µL sample of Mpro (0.4 µM) was preincubated with the indicated concentrations of dieckol (initial concentration: 100 µM, 8 two-fold dilutions) at RT for 35 min in FP assay buffer, and the reaction was initiated by adding 5 µM FRET substrate. DMSO and GC-376 (1 µM) was used as a negative and positive control, respectively. The RFU change was separately measured as described previously every second for 3 min by a microplate reader. The VI was calculated by a slope of the linear regression in the first 30 s, and the IC50 value was calculated using the following equation:3 Dieckolinhibition(%)=1-VIDieckol/VIDMSO×100%
To clarify the inhibitory mechanism of dieckol, the fixed concentrations of dieckol (0, 2, 4, 6 µM) were separately added to 50 µL sample of Mpro (0.4 µM), and the mixture was preincubated for 10 min at RT. After adding 5 µM FRET substrate, the VI was measured using a FRET assay. The inhibition mechanism of dieckol was inferred using the LB plot and a Ki value was generated by its secondary plot.

[4] = system: COc1ccc2c(CC(=O)N[C@@H](C)C(=O)N[C@H](C(=O)N[C@@H](CC(C)C)C(=O)N[C@@H](CCC(N)=O)C(=O)N[C@@H](CO)C(=O)NCC(=O)N[C@@H](Cc3ccccc3)C(=O)N[C@@H](CCCNC(=N)N)C(=O)N[C@@H](CCCCNc3ccc([N+](=O)[O-])cc3[N+](=O)[O-])C(=O)N[C@@H](CCCCN)C(N)=O)C(C)C)cc(=O)oc2c1; experiment: purified protein, by the assay type; conditions: pH 8.0

Molecule	Kd (SARS-CoV-2 Mpro [1]) [µM]	kd (SARS-CoV-2 Mpro [1]; SPR dissociation rate) [s⁻¹]	IC50 (SARS-CoV-2 Mpro [2]; absence of DTT) [µM]	IC50 (SARS-CoV-2 Mpro [2]; presence of 1 mM DTT) [µM]	Ki (SARS-CoV-2 Mpro [3]) [µM]	IC50 (SARS-CoV-2 Mpro [3]; absence of DTT) [µM]	IC50 (SARS-CoV-2 Mpro [3]; presence of 1 mM DTT) [µM]	inhibition mechanism (SARS-CoV-2 Mpro [3]; Lineweaver-Burk plot, same Vmax, varying Km)	Km [4] [µM]
Oc1cc(O)cc(Oc2c(O)cc(O)c3c2Oc2c(O)cc(Oc4c(O)cc(Oc5c(O)cc(O)c6c5Oc5c(O)cc(O)cc5O6)cc4O)cc2O3)c1 [dieckol]	0.22	0.000226	2.9 ± 0.2	4.5 ± 0.4	3.3	1.8 ± 0.2	3.8 ± 0.3	competitive inhibitor	–
SARS-CoV-2 Mpro (Severe acute respiratory syndrome coronavirus 2)	–	–	–	–	–	–	–	–	19.78
